Assays:
healthy subjects = assay: Analyzing test of blood components (myoglobin, lactic acid, CPK) after exercise stress; format: in vivo, human; details: value just after exercise stress = 100%
Procedure: To 20 healthy subjects (14 males and 6 females), was given an exercise stress of 15 km running within a limited time of 2 hours. The 20 subjects who run the whole distance within the limited time were divided into 2 groups by the arrival order, that is, one group consisting of 10 subjects of odd-numbered order of arrival (8 male subjects and 2 female subjects) and the other group consisting of 10 subjects of even-numbered order of arrival (6 male subjects and 4 female subjects). To the group of odd numbers was administered tranilast (hereinafter referred to as Medicine administration group) and to the group of even numbers was not administered (hereinafter referred to as Control group). […]
In each group, bloods were collected at a time of just before, just after, 3 days and 7 days after the exercise stress. And, blood components considered relevant to muscular fatigue and muscular damage (myoglobin, lactic acid and CPK) were analyzed, and relative degrees of changes of blood concentrations which are converted into relative values to the concentrations just after the exercise stress set as 100% were calculated.

[1] = repeated administration of 300 mg a day; cited from earlier work

With `COc1ccc(/C=C/C(=O)Nc2ccccc2C(=O)O)cc1OC` [tranilast, N-(3,4-dimethoxycinnnamoyl)anthranilic acid] as the compound, how does the “relative degree of change of blood concentration of CPK” value (healthy subjects; 3 days after exercise stress, control 160% or more) read?
The value was “about 110%”.

What about the “relative degree of change of blood concentration of CPK” value (healthy subjects; 7 days after exercise stress, control about 90%) of the same compound?
Its value is “about 60%”.

And the “time at which tranilast concentration in blood reached the maximum” value [1]?
The value was 2 days.

Reference: US20060111443A1, “Preventive therapeutic composition for muscular fatigue, pulled muscle and disease attributed thereto” (priority 2002, published 2006)
